Values after ≈ are worked out from the molar mass of the structure shown. Where two headings read alike, the source gives them in different places.
Key:
C. albicans = assay: Broth microdilution MIC/MFC, clinical isolate; format: cell-based; conditions: C. albicans clinical strain
Method in brief: (§1)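 Two-fold compound dilutions in RPMI 1640/MOPS (final 1000–0.0038 µg/ml, DMSO stocks) received clinical yeast at 0.5 McFarland. MIC was read spectrophotometrically as the lowest concentration with complete growth inhibition. MFC was the lowest concentration with no visible growth after well contents were spotted onto agar.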

C. famata = assay: Broth microdilution MIC/MFC, clinical isolate; format: cell-based; conditions: C. famata clinical strain
Method in brief: as §1

C. krusei = assay: Broth microdilution MIC/MFC, clinical isolate; format: cell-based; conditions: C. krusei clinical strain
Method in brief: as §1

C. sake = assay: Broth microdilution MIC/MFC, clinical isolate; format: cell-based; conditions: C. sake clinical strain
Method in brief: as §1

C. lusitaniae = assay: Broth microdilution MIC/MFC, clinical isolate; format: cell-based; conditions: C. lusitaniae clinical strain
Method in brief: as §1

C. guilliermondii = assay: Broth microdilution MIC/MFC, clinical isolate; format: cell-based; conditions: C. guilliermondii clinical strain
Method in brief: as §1

[1] = system: 6-Hz psychomotor seizures; assay: 6-Hz test; format: in vivo, mouse; conditions: Mus musculus, mice, 100 mg/kg ip, read-out: X/Y number of mice protected (X) per number of mice tested (Y) (converted)
Protocol: For in vivo tests that assessed anticonvulsant properties of the test compounds 3a-3j adult male Albino Swiss (CD-1) mice weighing between 18 and 22 g were used. The animals were housed in groups of ten mice per cage at room temperature of 22 ± 2 °C, under light/dark (12:12) cycle. The animals had free access to food and tap water before the experiments. The ambient temperature of the experimental room and humidity (50 ± 10%) were kept consistent throughout all the tests. For behavioral experiments the animals were selected randomly. Each experimental group consisted of 4-8 animals/dose. The experiments were performed between 9 AM and 2 PM. Immediately after the in vivo assay the animals were euthanized by cervical dislocation. All procedures were approved by the Local Ethics Committee of the Jagiellonian University in Krakow (34/2018, 1.02.2018)) and the treatment of animals was in full accordance with ethical standards laid down in respective Polish and EU regulations (Directive No. 86/609/EEC). For in vivo tests the compounds 3a-3j were prepared in 1% Tween 80 solution (POCH, Poland) and they were administered by the intraperitoneal route. Control mice received 1% Tween 80. Pentylenetetrazole (PTZ), pilocarpine hydrochloride and scopolamine butylbromide were provided by Sigma Aldrich (Poland). For the tests they were prepared in 0.9% saline (Polfa Kutno, Poland). PTZ and pilocarpine were administered 60 min after the test compound or vehicle. To assess anticonvulsant properties of the test compounds anticonvulsant screening was conducted. Four assays were used: PTZ, maximal electroshock seizure (MES), 6-Hz and pilocarpine tests. In these assays the dose of 100 mg/kg was chosen as a starting dose. If it turned out to be effective, a lower dose (30 mg/kg) was also tested. This test was performed according to (Barton et al. [2001]). It is an alternative electroshock paradigm that involves low-frequency (6 Hz), long-duration (3 s) electrical stimulation. Corneal stimulation (0.2 ms-duration monopolar rectangular pulses at 6 Hz for 3 s) was delivered by a constant-current device. During electrical stimulation mice were manually restrained and released into the observation cage immediately after current application. At the time of drug administration a drop of 0.5% tetracaine ([…] sterile solution, […] Pharmaceuticals Inc., USA) was applied into the eyes of all animals. Prior to the placement of corneal electrodes, a drop of 0.9% saline was applied on the eyes. In this model seizures manifest in 'stunned' posture associated with rearing, forelimb automatic movements and clonus, twitching of the vibrissae and Straub-tail. At the end of the seizure episode the animals resume their normal exploratory behavior. In this test protection against a seizure episode is considered as the end point and animals are considered to be protected if they resume their normal exploratory behavior within 10 s after electrical stimulation.

L929 and VERO cell lines = assay: MTT cytotoxicity assay; format: cell-based, mouse; African green monkey; conditions: 24 h, higher concentrations not reached due to limited solubility
[2] = Candida albicans, read-out: MFC
[3] = Candida albicans, read-out: MIC
[4] = Debaryomyces hansenii, read-out: MFC
[5] = Debaryomyces hansenii, read-out: MIC
[6] = Pichia kudriavzevii, read-out: MFC
[7] = Pichia kudriavzevii, read-out: MIC
[8] = Fermentozyma sake, read-out: MFC
[9] = Fermentozyma sake, read-out: MIC
[10] = Clavispora lusitaniae, read-out: MFC
[11] = Clavispora lusitaniae, read-out: MIC
[12] = Meyerozyma guilliermondii, read-out: MFC
[13] = Meyerozyma guilliermondii, read-out: MIC

| SMILES | MFC (C. albicans; [2]) | MIC (C. albicans; [3]) | MFC (C. famata; [4]) | MIC (C. famata; [5]) | MFC (C. krusei; [6]) | MIC (C. krusei; [7]) | MFC (C. sake; [8]) | MIC (C. sake; [9]) | MFC (C. lusitaniae; [10]) | MIC (C. lusitaniae; [11]) | MFC (C. guilliermondii; [12]) | MIC (C. guilliermondii; [13]) | responders at 100 mg/kg [1] | highest possible non-cytotoxic concentration (L929 and VERO cell lines) | further results |
| --- | --- | --- | --- | --- | --- | --- | --- | --- | --- | --- | --- | --- | --- | --- | --- |
| Fc1ccc(-c2csc(N/N=C/C3CC3)n2)cc1 [Compound 3a, (E)-2-(2-(Cyclopropylmethylene)hydrazinyl)-4-(4-fluorophenyl)thiazole] | 3.91 µg/mL (≈ 15 µM) | 0.98 µg/mL (≈ 3.75 µM) | 62.5 µg/mL (≈ 239 µM) | 7.81 µg/mL (≈ 29.9 µM) | 1.95 µg/mL (≈ 7.46 µM) | 0.98 µg/mL (≈ 3.75 µM) | 15.6 µg/mL (≈ 59.8 µM) | 3.91 µg/mL (≈ 15 µM) | 3.91 µg/mL (≈ 15 µM) | 0.98 µg/mL (≈ 3.75 µM) | 31.2 µg/mL (≈ 120 µM) | 1.95 µg/mL (≈ 7.46 µM) | 25% | 31.25 µg/mL |  |
| Brc1ccc(-c2csc(N/N=C/C3CC3)n2)cc1 [Compound 3b, (E)-4-(4-Bromophenyl)-2-(2-(cyclopropylmethylene)hydrazinyl)thiazole] | 1.95 µg/mL (≈ 6.05 µM) | 0.12 µg/mL (≈ 0.372 µM) | 0.98 µg/mL (≈ 3.04 µM) | 0.12 µg/mL (≈ 0.372 µM) | 0.48 µg/mL (≈ 1.49 µM) | 0.24 µg/mL (≈ 0.745 µM) | 0.24 µg/mL (≈ 0.745 µM) | 0.06 µg/mL (≈ 0.186 µM) | 1.95 µg/mL (≈ 6.05 µM) | 0.98 µg/mL (≈ 3.04 µM) | 0.48 µg/mL (≈ 1.49 µM) | 0.12 µg/mL (≈ 0.372 µM) | 0% | 7.81 µg/mL |  |
| Clc1ccc(-c2csc(N/N=C/C3CC3)n2)cc1 [Compound 3c, (E)-4-(4-Chlorophenyl)-2-(2-(cyclopropylmethylene)hydrazinyl)thiazole] | 0.98 µg/mL (≈ 3.53 µM) | 0.06 µg/mL (≈ 0.216 µM) | 0.98 µg/mL (≈ 3.53 µM) | 0.12 µg/mL (≈ 0.432 µM) | 0.48 µg/mL (≈ 1.73 µM) | 0.12 µg/mL (≈ 0.432 µM) | 0.98 µg/mL (≈ 3.53 µM) | 0.12 µg/mL (≈ 0.432 µM) | 0.12 µg/mL (≈ 0.432 µM) | 0.12 µg/mL (≈ 0.432 µM) | 0.98 µg/mL (≈ 3.53 µM) | 0.24 µg/mL (≈ 0.864 µM) | 25% | 7.81 µg/mL |  |
| Cc1ccc(-c2csc(N/N=C/C3CC3)n2)cc1 [Compound 3d, (E)-2-(2-(Cyclopropylmethylene)hydrazinyl)-4-p-tolylthiazole] | 0.24 µg/mL (≈ 0.933 µM) | 0.12 µg/mL (≈ 0.466 µM) | 3.91 µg/mL (≈ 15.2 µM) | 0.48 µg/mL (≈ 1.87 µM) | 0.98 µg/mL (≈ 3.81 µM) | 0.24 µg/mL (≈ 0.933 µM) | 0.48 µg/mL (≈ 1.87 µM) | 0.12 µg/mL (≈ 0.466 µM) | 0.48 µg/mL (≈ 1.87 µM) | 0.12 µg/mL (≈ 0.466 µM) | 3.91 µg/mL (≈ 15.2 µM) | 0.48 µg/mL (≈ 1.87 µM) | 50% | 31.25 µg/mL |  |
| FC(F)(F)c1ccc(-c2csc(N/N=C/C3CC3)n2)cc1 [Compound 3e, (E)-2-(2-(Cyclopropylmethylene)hydrazinyl)-4-(4-(trifluoromethyl)phenyl)thiazole] |  |  |  |  |  |  |  |  |  |  |  |  | 25% | 3.91 µg/mL |  |
| COc1ccc(-c2csc(N/N=C/C3CC3)n2)cc1 [Compound 3f, (E)-2-(2-(Cyclopropylmethylene)hydrazinyl)-4-(4-methoxyphenyl)thiazole] | 0.98 µg/mL (≈ 3.59 µM) | 0.24 µg/mL (≈ 0.878 µM) | 7.81 µg/mL (≈ 28.6 µM) | 0.48 µg/mL (≈ 1.76 µM) | 0.015 µg/mL (≈ 0.0549 µM) | 0.015 µg/mL (≈ 0.0549 µM) | 7.81 µg/mL (≈ 28.6 µM) | 0.06 µg/mL (≈ 0.219 µM) | 0.48 µg/mL (≈ 1.76 µM) | 0.12 µg/mL (≈ 0.439 µM) | 7.81 µg/mL (≈ 28.6 µM) | 0.48 µg/mL (≈ 1.76 µM) | 50% | 31.25 µg/mL |  |
| Fc1ccc(-c2csc(N/N=C/C3CC3)n2)c(F)c1 [Compound 3g, (E)-2-(2-(Cyclopropylmethylene)hydrazinyl)-4-(2,4-difluorophenyl)thiazole] | 1.95 µg/mL (≈ 6.98 µM) | 0.48 µg/mL (≈ 1.72 µM) | 62.5 µg/mL (≈ 224 µM) | 7.81 µg/mL (≈ 28 µM) | 0.48 µg/mL (≈ 1.72 µM) | 0.03 µg/mL (≈ 0.107 µM) | 3.91 µg/mL (≈ 14 µM) | 0.48 µg/mL (≈ 1.72 µM) | 1.95 µg/mL (≈ 6.98 µM) | 0.48 µg/mL (≈ 1.72 µM) | 31.2 µg/mL (≈ 112 µM) | 7.81 µg/mL (≈ 28 µM) | 25% | 15.63 µg/mL |  |
| N#Cc1ccc(-c2csc(N/N=C/C3CC3)n2)cc1 [Compound 3h, (E)-4-(2-(2-(Cyclopropylmethylene)hydrazinyl)thiazol-4-yl)benzonitrile] | 15.6 µg/mL (≈ 58.2 µM) | 0.98 µg/mL (≈ 3.65 µM) | 3.91 µg/mL (≈ 14.6 µM) | 1.95 µg/mL (≈ 7.27 µM) | 7.81 µg/mL (≈ 29.1 µM) | 0.48 µg/mL (≈ 1.79 µM) | 125 µg/mL (≈ 466 µM) | 0.98 µg/mL (≈ 3.65 µM) | 0.98 µg/mL (≈ 3.65 µM) | 0.24 µg/mL (≈ 0.894 µM) | 3.91 µg/mL (≈ 14.6 µM) | 0.48 µg/mL (≈ 1.79 µM) | 50% | 31.25 µg/mL |  |
| C[C@@H]1[C@H](O)[C@@H](C)/C=C/C=C/CC/C=C/C=C/C=C/C=C/C(O[C@H]2O[C@H](C)[C@@H](O)[C@H](N)[C@@H]2O)CC2O[C@](O)(CC(O)C(O)CCC(O)CC(O)CC(O)CC(=O)O[C@H]1C)CC(O)C2C(=O)O (stereo partly shown) [Nystatin, reference compound] |  |  |  |  |  |  |  |  |  |  |  |  |  |  | MFC (C. albicans): 0.24 µg/mL (≈ 0.259 µM); MFC/MIC (C. albicans): 1; MIC (C. albicans): 0.24 µg/mL (≈ 0.259 µM); MFC (C. famata): 0.12 µg/mL (≈ 0.13 µM); MFC/MIC (C. famata): 2; MIC (C. famata): 0.06 µg/mL (≈ 0.0648 µM); MFC (C. krusei): 0.98 µg/mL (≈ 1.06 µM); MFC/MIC (C. krusei): 4; MIC (C. krusei): 0.24 µg/mL (≈ 0.259 µM); MFC (C. sake): 0.12 µg/mL (≈ 0.13 µM); MFC/MIC (C. sake): 2; MIC (C. sake): 0.06 µg/mL (≈ 0.0648 µM); MFC (C. lusitaniae): 0.24 µg/mL (≈ 0.259 µM); MFC/MIC (C. lusitaniae): 2; MIC (C. lusitaniae): 0.12 µg/mL (≈ 0.13 µM); MFC (C. guilliermondii): 0.12 µg/mL (≈ 0.13 µM); MFC/MIC (C. guilliermondii): 2; MIC (C. guilliermondii): 0.06 µg/mL (≈ 0.0648 µM) |

From article PMC6133161, “Thiazoles with cyclopropyl fragment as antifungal, anticonvulsant, and anti-Toxoplasma gondii agents: synthesis, toxicity evaluation, and molecular docking study” (Medicinal Chemistry Research, 2018)
